How the values were obtained:
[1] = tested on: Mycobacterium tuberculosis Erdman (autoluminescent); experiment: GRinf, maximum normalised growth rate inhibition (unitless (-1 to 1)); higher = less effect (negative = killing)
Description: (§1)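 DiaMOND equipotent two-drug combination dose responses against autoluminescent M. tuberculosis Erdman in 8 in vitro models. Read-out is OD600, or luminescence for the intracellular and dormancy models, normalised to untreated wells. Hill-fit Einf, AUC25 and GRinf are potency metrics; FIC50 and FIC90 are Loewe-additivity fractional inhibitory concentrations, given as log2 (negative = synergy). Replicates are averaged.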

[2] = tested on: Mycobacterium tuberculosis Erdman (autoluminescent); experiment: Einf, fitted maximum growth inhibition of combination (fraction); higher = stronger maximal inhibition
Description: as §1

[3] = tested on: Mycobacterium tuberculosis Erdman (autoluminescent); experiment: FIC90 (Loewe) at 90% inhibition (log2); higher = more antagonistic
Description: as §1

[4] = tested on: Mycobacterium tuberculosis Erdman (autoluminescent); experiment: AUC25, normalised area under dose response up to IC25 (fraction (0-1)); higher = more potent at low dose
Description: as §1

[5] = tested on: Mycobacterium tuberculosis Erdman (autoluminescent); experiment: FIC50 (Loewe) at 50% inhibition (log2); higher = more antagonistic
Description: as §1

COc1nc2ccc(Br)cc2cc1[C@@H](c1ccccc1)[C@@](O)(CCN(C)C)c1cccc2ccccc12 [bedaquiline] + NNC(=O)c1ccncc1 [isoniazid]
Conditions | AUC25, [4] | Einf, [2] | FIC50, [5] | FIC90, [3] | GRinf, [1]
in vitro model: acidic pH 5.7, time point: constant (~7 days, model-specific) | 0.107 | 0.873 | 0.428 | – | -0.331
in vitro model: acidic pH 5.7, time point: terminal (~4-5 doublings, model-specific) | 0.0934 | 0.984 | 0.351 | 0.404 | -0.384
in vitro model: intracellular J774, time point: constant = terminal | – | 0.98 | – | 0.531 | -0.383

Conditions | AUC25, [4] | Einf, [2] | FIC50, [5] | FIC90, [3] | GRinf, [1]
in vitro model: butyrate, time point: constant (~7 days, model-specific) | 0.0598 | 0.944 | 0.533 | 0.547 | -0.0886
in vitro model: butyrate, time point: terminal (~4-5 doublings, model-specific) | 0.0557 | 0.98 | 0.43 | 0.506 | -0.111
in vitro model: cholesterol 0.05 mM, time point: constant (~7 days, model-specific) | 0.102 | 0.729 | 0.373 | – | -0.169
in vitro model: cholesterol 0.05 mM, time point: terminal (~4-5 doublings, model-specific) | 0.0662 | 0.913 | 0.302 | 0.193 | -0.202
in vitro model: cholesterol-high 0.2 mM, time point: constant (~7 days, model-specific) | 0.0815 | 0.964 | 0.284 | 0.699 | -0.49
in vitro model: cholesterol-high 0.2 mM, time point: terminal (~4-5 doublings, model-specific) | 0.0507 | 0.996 | 0.335 | 0.25 | -0.658
in vitro model: dormancy (butyrate + nitrate, low O2), time point: constant (~7 days, model-specific) | 0.0656 | 0.92 | 0.646 | 0.194 | 0.179
in vitro model: dormancy (butyrate + nitrate, low O2), time point: terminal (~4-5 doublings, model-specific) | 0.0512 | 0.983 | 0.0908 | -0.202 | -0.0876
in vitro model: standard 7H9 glycerol, time point: constant = terminal | 0.0578 | 0.966 | -0.0769 | -0.0712 | -0.124
in vitro model: valerate, time point: constant (~7 days, model-specific) | 0.0996 | 0.946 | 0.561 | 0.24 | -0.194
in vitro model: valerate, time point: terminal (~4-5 doublings, model-specific) | 0.0554 | 0.971 | 0.661 | 0.741 | -0.129

COc1nc2ccc(Br)cc2cc1[C@@H](c1ccccc1)[C@@](O)(CCN(C)C)c1cccc2ccccc12 [bedaquiline] + O=[N+]([O-])c1cn2c(n1)OC[C@@H](OCc1ccc(OC(F)(F)F)cc1)C2 [pretomanid]
Conditions | AUC25, [4] | Einf, [2] | FIC50, [5] | FIC90, [3] | GRinf, [1]
in vitro model: acidic pH 5.7, time point: constant (~7 days, model-specific) | 0.121 | 0.879 | 0.399 | 0.503 | -0.293
in vitro model: acidic pH 5.7, time point: terminal (~4-5 doublings, model-specific) | 0.0888 | 0.973 | 0.169 | 0.292 | -0.358
in vitro model: intracellular J774, time point: constant = terminal | – | 1 | – | 0.703 | -0.579

Conditions | AUC25, [4] | Einf, [2] | FIC50, [5] | FIC90, [3] | GRinf, [1]
in vitro model: butyrate, time point: constant (~7 days, model-specific) | 0.105 | 0.96 | 0.76 | 1.49 | -0.17
in vitro model: butyrate, time point: terminal (~4-5 doublings, model-specific) | 0.0889 | 0.99 | 0.874 | 1.5 | -0.346
in vitro model: cholesterol 0.05 mM, time point: constant (~7 days, model-specific) | 0.118 | 0.737 | 0.484 | – | -0.158
in vitro model: cholesterol 0.05 mM, time point: terminal (~4-5 doublings, model-specific) | 0.0926 | 0.928 | 0.466 | 1.33 | -0.23
in vitro model: cholesterol-high 0.2 mM, time point: constant (~7 days, model-specific) | 0.0648 | 0.883 | 0.673 | 1.04 | -0.183
in vitro model: cholesterol-high 0.2 mM, time point: terminal (~4-5 doublings, model-specific) | 0.0479 | 0.991 | 0.686 | 0.706 | -0.576
in vitro model: dormancy (butyrate + nitrate, low O2), time point: constant (~7 days, model-specific) | 0.0466 | 0.927 | -0.341 | -0.857 | 0.169
in vitro model: dormancy (butyrate + nitrate, low O2), time point: terminal (~4-5 doublings, model-specific) | 0.0475 | 0.98 | -0.522 | -1.14 | -0.0913
in vitro model: standard 7H9 glycerol, time point: constant = terminal | 0.0817 | 0.982 | 0.0934 | 0.269 | -0.196
in vitro model: valerate, time point: constant (~7 days, model-specific) | 0.136 | 0.935 | 0.105 | 1.2 | -0.238
in vitro model: valerate, time point: terminal (~4-5 doublings, model-specific) | 0.099 | 0.96 | 0.0653 | 0.71 | -0.0796

CC(C)/N=c1\cc2n(-c3ccc(Cl)cc3)c3ccccc3nc-2cc1Nc1ccc(Cl)cc1 [clofazimine] + CC(=O)NC[C@H]1CN(c2ccc(N3CCOCC3)c(F)c2)C(=O)O1 [linezolid]
Conditions | AUC25, [4] | Einf, [2] | FIC50, [5] | FIC90, [3] | GRinf, [1]
in vitro model: acidic pH 5.7, time point: constant (~7 days, model-specific) | 0.0778 | 0.864 | 0.346 | – | -0.00597
in vitro model: acidic pH 5.7, time point: terminal (~4-5 doublings, model-specific) | 0.111 | 0.973 | 0.329 | 0.0194 | -0.305
in vitro model: intracellular J774, time point: constant = terminal | – | 0.855 | – | 0.457 | -0.0533

Conditions | AUC25, [4] | Einf, [2] | FIC50, [5] | FIC90, [3] | GRinf, [1]
in vitro model: butyrate, time point: constant (~7 days, model-specific) | 0.113 | 0.957 | 0.573 | 0.875 | -0.158
in vitro model: butyrate, time point: terminal (~4-5 doublings, model-specific) | 0.0908 | 0.98 | 0.626 | 0.85 | -0.142
in vitro model: cholesterol 0.05 mM, time point: constant (~7 days, model-specific) | 0.152 | 0.747 | -0.262 | – | -0.0419
in vitro model: cholesterol 0.05 mM, time point: terminal (~4-5 doublings, model-specific) | 0.164 | 0.951 | -0.033 | 1.4 | -0.35
in vitro model: cholesterol-high 0.2 mM, time point: constant (~7 days, model-specific) | 0.131 | 0.917 | 0.143 | 1.38 | -0.536
in vitro model: cholesterol-high 0.2 mM, time point: terminal (~4-5 doublings, model-specific) | 0.133 | 0.994 | -0.317 | 0.449 | -0.854
in vitro model: dormancy (butyrate + nitrate, low O2), time point: constant (~7 days, model-specific) | 0.0454 | 0.901 | 1.67 | 0.93 | 0.239
in vitro model: dormancy (butyrate + nitrate, low O2), time point: terminal (~4-5 doublings, model-specific) | 0.0463 | 0.981 | 1.05 | 0.839 | -0.123
in vitro model: standard 7H9 glycerol, time point: constant = terminal | 0.117 | 0.979 | 0.286 | 0.696 | -0.276
in vitro model: valerate, time point: constant (~7 days, model-specific) | 0.148 | 0.925 | -0.104 | 0.827 | -0.186
in vitro model: valerate, time point: terminal (~4-5 doublings, model-specific) | 0.0982 | 0.944 | 0.165 | 0.597 | -0.107

From the supplement of paper PMC8617591
